Measurements from patent US6555821B1, “Method for analysis of expired gas” (priority 1999, dated 2003).
Values joined by “and” are separate entries in the source; they are usually repeats but may differ in a detail not shown here. Equal values may be shown once. Blank lines part the entries; values can stand above or below the compound they belong to.

Tests used:
[1] = Bubbling tests: alcohol concentration in gas phase over alcohol-water solution, measured by low resolution FT-IR; type: physicochemical; conditions: for Concentration of ethanol in gas phase / Concentration of methanol in gas phase: 21.0 ± 1.0° C., 1 atm, mean ± SD of 10 spectra
[2] = as above; type: physicochemical; conditions: for Concentration of methanol in gas phase: 21.0 ± 1.0° C., 1 atm, mean ± SD of 10 spectra
Description: Vaporous ethanol and methanol mixtures in water were made by bubbling nitrogen gas through a corresponding liquid mixture. The purpose of measuring mixtures of ethanol and methanol was to test the applicability of the instrument for determining more than one alcohol in a gas mixture containing a large amount of water vapor like human exhaled breath. Particularly, the measurements were performed with a large ethanol:methanol ratio in order to investigate whether the instrument is able to determine a low concentration of methanol in the presence of a large amount of ethanol.

[3] = 25° C., 1 atm; Hine and Mookerjee 1975, Davidovits et al. 1995; cited from earlier work

- Concentration of ethanol in gas phase ([1]; 3.17 W-% ethanol in water with methanol in liquid 0.102 w-%): 295 ± 2 ppm
- Concentration of ethanol in gas phase ([1]; 3.17 W-% ethanol in water with methanol in liquid 0.159 w-%): 314 ± 4 ppm
- Concentration of ethanol in gas phase ([1]; 3.17 W-% ethanol in water with methanol in liquid 0.222 w-%): 298 ± 3 ppm
- Concentration of ethanol in gas phase ([1]; 3.17 W-% ethanol in water with methanol in liquid 0.317 w-%): 304 ± 2 ppm
- Concentration of ethanol in gas phase ([1]; 3.17 W-% ethanol in water with methanol in liquid 0.95 w-%): 296 ± 4 ppm
- Concentration of ethanol in gas phase ([1]; 3.17 W-% ethanol in water with methanol in liquid 1.59 w-%): 303 ± 5 ppm
- Concentration of ethanol in gas phase ([1]; 3.17 W-% ethanol in water with methanol in liquid 3.18 w-%): 300 ± 2 ppm
- Concentration of ethanol in gas phase ([1]; 3.17 W-% ethanol in water with methanol in liquid 6.36 w-%): 293 ± 3 ppm
- Concentration of ethanol in gas phase ([1]; 3.17 W-% ethanol in water with methanol in liquid 15.9 w-%): 289 ± 1 ppm
- ethanol in the gas phase (FIG. 1 spectrum) ([1]; 3.17 w-‰ ethanol and 0.159 w-‰ methanol in liquid phase (water), 21±1° C.): 310 ppm
- Concentration of ethanol in gas phase ([1]; ethanol in liquid 0.202 w-%, water): 19.2 ± 0.1 ppm
- Concentration of ethanol in gas phase ([1]; ethanol in liquid 0.5 w-%, water): 45.7 ± 0.3 ppm
- Concentration of ethanol in gas phase ([1]; ethanol in liquid 1 w-%, water): 94 ± 1 ppm
- Concentration of ethanol in gas phase ([1]; ethanol in liquid 1.58 w-%, water): 148 ± 2 ppm
- Concentration of ethanol in gas phase ([1]; ethanol in liquid 3.16 w-%, water): 305 ± 4 ppm
- Concentration of ethanol in gas phase ([1]; ethanol in liquid 6.33 w-%, water): 587 ± 4 ppm
- Concentration of ethanol in gas phase ([1]; ethanol in liquid 9.49 w-%, water): 907 ± 6 ppm
- Concentration of ethanol in gas phase ([1]; ethanol in liquid 15.8 w-%, water): 1466 ± 11 ppm
- Concentration of ethanol in gas phase ([1]; ethanol in liquid 31.6 w-%, water): 2907 ± 4 ppm
Compound: CCO [ethanol]

Compound: CO [methanol]
- methanol in the gas phase (FIG. 1 spectrum) ([2]; 0.159 w-‰ methanol and 3.17 w-‰ ethanol in liquid phase (water), 21±1° C.): 22.4 ppm
- Concentration of methanol in gas phase ([2]; methanol in liquid 0.222 w-% in mixture of water and 3.17 W-% ethanol): 30.2 ± 0.5 ppm
- Concentration of methanol in gas phase ([2]; methanol in liquid 0.95 w-% in mixture of water and 3.17 W-% ethanol): 120 ± 2 ppm
- Concentration of methanol in gas phase ([2]; methanol in liquid 1.59 w-% in mixture of water and 3.17 W-% ethanol): 201 ± 3 ppm
- Concentration of methanol in gas phase ([2]; methanol in liquid 3.18 w-% in mixture of water and 3.17 W-% ethanol): 402 ± 2 ppm
- Concentration of methanol in gas phase ([2]; methanol in liquid 6.36 w-% in mixture of water and 3.17 W-% ethanol): 806 ± 7 ppm
- Concentration of methanol in gas phase ([1]; methanol in liquid 0.101 w-%, water): 13 ± 0.2 ppm
- Concentration of methanol in gas phase ([1]; methanol in liquid 0.102 w-% in mixture of water and 3.17 W-% ethanol): 14.2 ± 0.4 ppm
- Concentration of methanol in gas phase ([1]; methanol in liquid 0.159 w-% in mixture of water and 3.17 W-% ethanol): 22.2 ± 0.4 ppm
- Concentration of methanol in gas phase ([1]; methanol in liquid 0.203 w-%, water): 26.9 ± 0.1 ppm
- Concentration of methanol in gas phase ([1]; methanol in liquid 0.301 w-%, water): 41.6 ± 0.3 ppm
- Concentration of methanol in gas phase ([1]; methanol in liquid 0.317 w-% in mixture of water and 3.17 W-% ethanol): 43.4 ± 0.4 ppm
- Concentration of methanol in gas phase ([1]; methanol in liquid 0.501 w-%, water): 61 ± 1 ppm
- Concentration of methanol in gas phase ([1]; methanol in liquid 1.59 w-%, water): 204 ± 2 ppm
- Concentration of methanol in gas phase ([1]; methanol in liquid 3.17 w-%, water): 402 ± 2 ppm
- Concentration of methanol in gas phase ([1]; methanol in liquid 6.34 w-%, water): 805 ± 4 ppm
- Concentration of methanol in gas phase ([1]; methanol in liquid 9.51 w-%, water): 1207 ± 5 ppm
- Concentration of methanol in gas phase ([1]; methanol in liquid 15.9 w-% in mixture of water and 3.17 W-% ethanol): 2006 ± 3 ppm
- Concentration of methanol in gas phase ([1]; methanol in liquid 15.9 w-%, water): 2031 ± 14 ppm
- Concentration of methanol in gas phase ([1]; methanol in liquid 31.7 w-%, water): 4067 ± 28 ppm
- water-air partition coefficient (literature Henry's law constants) [3]: 5260 and 5334
